Measurements as given in the supplement of paper PMC10307832.

Tests used:
Assay in all cases: relative viability (nuclei count vs DMSO), 5 days (fraction); higher = more cells survive
Fedratinib + Phenformin = compound: Cc1cnc(Nc2ccc(OCCN3CCCC3)cc2)nc1Nc1cccc(S(=O)(=O)NC(C)(C)C)c1 [Fedratinib] + N=C(N)NC(=N)NCCc1ccccc1 [Phenformin] (partner 250 µM)
In short: (§1)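 Nuclei were stained with Hoechst during a one-step fixation (final 0.05% Triton X-100, 1% formaldehyde, 1 ug/ml Hoechst) carried out 5 days after dosing, then counted on 4× images. The cells, lung cancer lines in 1536-well plates, had been dosed by pin tool the day after seeding with one drug alone or a fixed anchor-drug dose plus five library-drug doses (not always all listed) in √10 steps. Relative viability is the nuclei count in treated wells divided by that in vehicle wells, and each value is the median of duplicate plates.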

GW-2580 + AZD7762 = compound: COC1=CC=C(C=C1)COC2=C(C=C(C=C2)CC3=CN=C(N=C3N)N)OC [GW-2580] + NC(=O)Nc1cc(-c2cccc(F)c2)sc1C(=O)N[C@H]1CCCNC1 [AZD7762] (partner 0.2 µM)
In short: as §1

GW-2580 + Luminespib = compound: COC1=CC=C(C=C1)COC2=C(C=C(C=C2)CC3=CN=C(N=C3N)N)OC [GW-2580] + CCNC(=O)c1noc(-c2cc(C(C)C)c(O)cc2O)c1-c1ccc(CN2CCOCC2)cc1 [Luminespib] (partner 0.01 µM)
In short: as §1

GW-2580 + Trametinib = compound: COC1=CC=C(C=C1)COC2=C(C=C(C=C2)CC3=CN=C(N=C3N)N)OC [GW-2580] + CC(=O)Nc1cccc(-n2c(=O)n(C3CC3)c(=O)c3c(Nc4ccc(I)cc4F)n(C)c(=O)c(C)c32)c1 [Trametinib] (partner 0.02 µM)
In short: as §1

Fedratinib + Olaparib = compound: Cc1cnc(Nc2ccc(OCCN3CCCC3)cc2)nc1Nc1cccc(S(=O)(=O)NC(C)(C)C)c1 [Fedratinib] + O=C(c1cc(Cc2n[nH]c(=O)c3ccccc23)ccc1F)N1CCN(C(=O)C2CC2)CC1 [Olaparib] (partner 8 µM)
In short: as §1

Row | Cell Line | relative viability (Fedratinib + Phenformin; first compound 0.1 µM) | relative viability (Fedratinib + Phenformin; first compound 0.3162 µM) | relative viability (Fedratinib + Phenformin; first compound 1 µM) | relative viability (GW-2580 + AZD7762; first compound 0.08 µM) | relative viability (GW-2580 + AZD7762; first compound 0.8 µM) | relative viability (GW-2580 + AZD7762; first compound 2.53 µM) | relative viability (GW-2580 + AZD7762; first compound 8 µM) | relative viability (GW-2580 + Luminespib; first compound 0.08 µM) | relative viability (GW-2580 + Luminespib; first compound 0.8 µM) | relative viability (GW-2580 + Luminespib; first compound 2.53 µM) | relative viability (GW-2580 + Luminespib; first compound 8 µM) | relative viability (GW-2580 + Trametinib; first compound 0.08 µM) | relative viability (GW-2580 + Trametinib; first compound 0.8 µM) | relative viability (GW-2580 + Trametinib; first compound 2.53 µM) | relative viability (GW-2580 + Trametinib; first compound 8 µM) | relative viability (Fedratinib + Olaparib; first compound 0.1 µM) | relative viability (Fedratinib + Olaparib; first compound 0.3162 µM) | relative viability (Fedratinib + Olaparib; first compound 1 µM)
1 | NCI-H1755 | 0.561 | 0.593 | 0.518 | 0.483 | 0.486 | 0.448 | 0.405 | 0.697 | 0.401 | 0.332 | 0.45 | 0.786 | 0.838 | 0.777 | 0.702 | 0.898 | 0.861 | 0.855
2 | NCI-H1792 | – | 0.77 | 0.338 | 0.681 | 0.712 | 0.63 | 0.697 | 0.503 | 0.444 | 0.567 | 0.411 | 0.49 | 0.502 | 0.388 | 0.337 | 0.599 | 0.402 | 0.282
3 | NCI-H1793 | 0.27 | 0.178 | 0.312 | 0.587 | 0.382 | 0.266 | 0.323 | 0.187 | 0.238 | 0.162 | 0.151 | 0.467 | 0.425 | 0.344 | 0.464 | 0.998 | 0.941 | 0.775
4 | NCI-H1915 | 0.374 | 0.361 | 0.298 | 0.772 | 0.708 | 0.692 | 0.743 | 0.852 | 1.12 | 0.429 | 0.917 | 0.312 | 0.288 | 0.251 | 0.279 | 0.262 | 0.227 | 0.222
5 | NCI-H1944 | 0.194 | 0.228 | 0.213 | 0.572 | 0.498 | 0.485 | 0.452 | 0.692 | 0.767 | 0.7 | 0.628 | 0.463 | 0.387 | 0.336 | 0.377 | 0.407 | 0.383 | 0.408
6 | NCI-H1975 | 0.416 | 0.407 | 0.37 | 0.829 | 0.805 | 0.598 | 0.815 | 0.186 | 0.5 | 0.162 | 0.193 | 0.34 | 0.38 | 0.306 | 0.275 | 0.814 | 0.841 | 0.613
7 | NCI-H1993 | 0.508 | 0.476 | 0.493 | 0.851 | 0.772 | 0.687 | 0.868 | 0.853 | 0.907 | 0.71 | 0.852 | 0.507 | 0.576 | 0.522 | 0.519 | 0.949 | 1.01 | 0.839
8 | NCI-H2085 | 0.671 | 0.749 | 0.688 | 1.14 | 1.14 | 0.989 | 0.919 | 0.529 | 0.364 | 0.436 | 0.411 | 0.526 | 0.515 | 0.484 | 0.638 | 0.73 | 0.824 | 0.765
9 | NCI-H2087 | 0.45 | 0.477 | 0.379 | 1.33 | 1.4 | 1.12 | 0.937 | 0.133 | 0.179 | 0.174 | 0.164 | 0.178 | 0.204 | 0.2 | 0.227 | 0.534 | 0.49 | 0.425
10 | NCI-H2126 | 0.532 | 0.569 | 0.498 | 1.06 | 1.02 | 0.942 | 1.03 | 0.96 | 1 | 0.907 | 0.825 | 0.547 | 0.575 | 0.5 | 0.649 | 0.927 | 0.939 | 0.938
11 | NCI-H2170 | 0.333 | 0.402 | 0.386 | 0.982 | 0.864 | 0.723 | 0.837 | 0.827 | 0.572 | 0.851 | 0.594 | 0.994 | 1.01 | 0.924 | 0.857 | 0.63 | 0.581 | 0.562
12 | NCI-H2342 | 0.674 | 0.537 | 0.634 | 0.585 | 0.481 | 0.497 | 0.444 | 0.788 | 0.77 | 0.859 | 0.714 | 0.805 | 0.889 | 0.783 | 0.83 | 0.462 | 0.456 | 0.472
13 | NCI-H2347 | 0.508 | 0.225 | 0.494 | 0.852 | 0.855 | 0.636 | 0.776 | 0.491 | 0.656 | 0.369 | 0.471 | 0.294 | 0.277 | 0.266 | 0.268 | 0.551 | 0.58 | 0.596
14 | NCI-H2405 | 0.315 | 0.412 | 0.446 | 0.793 | 0.712 | 0.703 | 0.581 | 0.727 | 0.604 | 0.671 | 0.586 | 0.68 | 0.586 | 0.596 | 0.563 | 0.837 | 0.835 | 0.802
15 | NCI-H3122 | 0.292 | 0.407 | 0.339 | 1.01 | 1.02 | 1.06 | 1 | 0.0808 | 0.0609 | 0.0868 | 0.0798 | 0.305 | 0.264 | 0.18 | 0.234 | 0.739 | 0.632 | 0.608
16 | PC-3 [JPC-3] | 0.508 | 0.466 | 0.482 | 0.732 | 1.09 | 0.897 | 0.781 | 0.719 | 0.774 | 0.544 | 0.705 | 0.7 | 0.674 | 0.685 | 0.745 | 1.01 | 1.09 | 1.01
17 | PC-14 | 0.427 | 0.676 | 0.386 | 0.47 | 0.484 | 0.271 | 0.396 | 0.144 | 0.129 | 0.175 | 0.131 | 0.806 | 0.675 | 0.585 | 0.637 | 0.371 | 0.324 | 0.309
